# Test results taken from US10272082B2, “Combination ALS therapy” (Cytokinetics, Inc., priority 2011, dated 2019).
# Entries after “also recorded” stand apart in the source; their conditions may differ.
# Assays:
# human hepatic microsomes = conditions: in vitro; high concentrations required; cited from earlier work
# [1] = ALS patients
# [2] = Example 4: twice-daily dose titration regimen of CK-2017357 in patients with ALS; assay type: in vivo
# Source text: Patients enrolled in this clinical study were randomized, double-blind, and placebo-controlled.
# Placebo patients underwent a similar dummy dose titration to maintain the blind. FIG. 4 illustrates the study design.
# clinical = conditions: human, plasma, CK-2017357 Cmax, 14 days, ALS patients
# CYP1A2 = target: T1, CYP1A2 (Homo sapiens, UniProt P05177); experiment: Mechanism-based inhibition of human CYP1A2 in vitro; assay type: in vitro ADME
# T1 sequence (P05177 1-516): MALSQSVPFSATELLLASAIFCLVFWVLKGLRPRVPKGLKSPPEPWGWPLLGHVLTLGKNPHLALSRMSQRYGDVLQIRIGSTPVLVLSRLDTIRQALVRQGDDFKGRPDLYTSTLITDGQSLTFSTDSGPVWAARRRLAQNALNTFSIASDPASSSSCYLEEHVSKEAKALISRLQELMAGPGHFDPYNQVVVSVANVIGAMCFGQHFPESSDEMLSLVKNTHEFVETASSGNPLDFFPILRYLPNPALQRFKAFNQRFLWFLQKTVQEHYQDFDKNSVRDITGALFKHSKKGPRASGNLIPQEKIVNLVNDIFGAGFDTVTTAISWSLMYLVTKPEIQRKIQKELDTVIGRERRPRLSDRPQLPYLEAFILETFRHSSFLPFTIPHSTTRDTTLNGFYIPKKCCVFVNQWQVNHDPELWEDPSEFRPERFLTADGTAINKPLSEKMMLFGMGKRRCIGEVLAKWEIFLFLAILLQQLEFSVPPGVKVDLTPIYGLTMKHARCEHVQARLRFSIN
# [3] = Previous clinical experiments with CK-2017357 once a day in the morning; assay type: in vivo, human
# Source text: In previous clinical experiments, 1-(ethylpropyl)-6-ethynylimidazo[4,5-b]pyrazin-2-ol (CK-2017357) has been administered once a day in the morning. While improvements in patient and investigator global assessments, muscle fatigability and pulmonary function have been observed in these studies, dizziness has been a dose-limiting adverse event in both healthy volunteers and in patients with ALS. This example examines whether the maximum tolerable total daily dose of CK-2017357 can be increased by dividing the daily dose into two portions (morning and evening), and beginning treatment with a low dose and titrating upward to a target of 250 mg twice daily.
# [4] = repeated single daily doses 125-375 mg
compound,measurement,setting,value
CN(C)CCC=C1c2ccccc2CCc2ccccc21 [amitriptyline],inhibition of the metabolism of riluzole by human hepatic microsomes,human hepatic microsomes,inhibition has been observed
O=C(O)Cc1ccccc1Nc1c(Cl)cccc1Cl [diclofenac],inhibition of the metabolism of riluzole by human hepatic microsomes,human hepatic microsomes,inhibition has been observed
CN(C)CCCN1c2ccccc2CCc2ccc(Cl)cc21 [clomipramine],inhibition of the metabolism of riluzole by human hepatic microsomes,human hepatic microsomes,inhibition has been observed
"C#Cc1cnc2nc(O)n(C(CC)CC)c2n1 [CK-2017357, 6-Ethynyl-1-(pentan-3-yl)-1H-imidazo[4,5-b]pyrazin-2(3H)-one]",dose dependence of CK-2017357 pharmacokinetics,"[1]; 125, 250, 375 mg daily for 14 days",increased proportionally by dose; also recorded: predictable linear kinetics
same,adverse event frequencies in the presence of riluzole,[1]; at any dose of CK-2017357,not altered
same,plasma levels achieved steady state by,[1]; [4],≤ 8 days
same,time to reach steady state,[1]; [4],≤ 1 week
same,plasma level four hours after dosing on Day 8 higher than four hours after first dose on Day 1,[1]; repeated single daily doses,approximately 70%
same,effect of riluzole on CK-2017357 Cmax / plasma levels,[1]; riluzole 50 mg daily vs none,no apparent effect of riluzole; also recorded: not affected
same,safety and tolerability of twice-daily dose titration regimen,[2]; ALS patients,safe and well tolerated
same,ALSFRS-R score and MVV,"[2]; CK-2017357 relative to placebo, ALS patients",Encouraging trends toward increases
same,patients in whom dizziness was self-limited,[2]; of 12 patients in whom it occurred,6 patients
same,patients in whom dizziness was mild,[2]; of the 12 patients in whom it occurred,10 patients
same,patients escalated to the highest total daily dose of 500 mg and completing three weeks of dosing,"[2]; of the 21 patients randomized to CK-2017357, twice-daily titration, riluzole 50 mg QD",14 patients
same,most commonly reported treatment-emergent adverse event,"[2]; twice-daily dose titration 250-500 mg total daily, ALS patients",dizziness
same,Cmax,"clinical; 50 mg, CK-2017357 daily dose 125 (mg), On Riluzole (50 mg daily)",6000 ng/mL
same,Cmax,"clinical; 50 mg, CK-2017357 daily dose 250 (mg), On Riluzole (50 mg daily)",8400 ng/mL
same,Cmax,"clinical; 50 mg, CK-2017357 daily dose 375 (mg), On Riluzole (50 mg daily)",13500 ng/mL
same,Cmax,"clinical; 125 mg, CK-2017357 daily dose 125 (mg), No Riluzole",4100 ng/mL
same,Cmax,"clinical; 250 mg, CK-2017357 daily dose 250 (mg), No Riluzole",7400 ng/mL
same,Cmax,"clinical; 375 mg, CK-2017357 daily dose 375 (mg), No Riluzole",12700 ng/mL
same,KI (inactivation),CYP1A2; read-out: K1 (inactivation constant),1900 nM
same,kinact,CYP1A2; read-out: kinact (max rate constant for inactivation) (converted),0.000517 s⁻¹
same,dose-limiting adverse event,[3]; healthy volunteers and patients with ALS,dizziness
same,"patient and investigator global assessments, muscle fatigability and pulmonary function",[3]; previous clinical experiments,improvements
CO[C@]12C[C@@H](COC(=O)c3cncc(Br)c3)CN(C)[C@@H]1Cc1cn(C)c3cccc2c13 [nicergoline],inhibition of the metabolism of riluzole by human hepatic microsomes,human hepatic microsomes,inhibition has been observed
